Source: patent US9802990B2, “Functional peptides for obesity disorders” (DANONE, S.A., priority 2013, dated 2017)
Where no end group is shown, it is not given here.

Columns and labels:
[1] = biological target: PLA2 (pancreatic phospholipase A2) (Homo sapiens, UniProt P04054); experiment: PLA2 inhibition assay by HPLC with DOPC as substrate; format: biochemical
Method: Inhibition of PLA2 enzyme was determined by High Performance Liquid Chromatography (HPLC) using 1,2-dioleoyl-sn-glycero-3-phosphocholine (DOPC) as substrate as described by Singh et al. (A rapid isocratic high-performance liquid chromatography method for determination of cholesterol and 1,2-dioleoyl-sn-glycero-3-phosphocholine. Journal of Chromatography (2005); 1073:347-353). Waters 2695 HPLC with Waters 2996 Photodiode detector Array and a C8 column Hypersil BDS (250×4.6 mm, […]) were used carrying out an eluent isocratic method formed by a mixture of ammonium phosphate buffer 50 mM pH 2.7:methanol (15:85, v/v).

[2] = test system: C. elegans wild type strain N2; experiment: C. elegans body fat reduction, Nile Red staining; format: in vivo, Caenorhabditis elegans
Method: The ability to reduce body fat content in the nematode C. elegans was analyzed in a group of 5 peptide extracts previously obtained from glycinin (see Table 4). These samples were selected by their high effect on PL and PLA2 in vitro inhibition. Specifically, 5 peptide extracts were selected from the PLA2 inhibition assay (M20G, M5G, M31G, M27G and M29G). Body fat content was analyzed in the C. elegans wild type strain N2 by Red Nile dying of living nematodes. Experiments were carried out with age-synchronized populations, starting from egg-stage to young adult stage (3-day adults). During the experiments, worms were cultured in the NGM agar plates as control condition, NGM with the corresponding peptide extracts (100 μL/plate) and NGM with 6 μg/mL of Orlistat as positive control. Nile Red was added on top of the NG plates already seeded with Escherichia coli OP50 strain to a final concentration of 0.05 μg/ml. After incubation at 20° C., young adult worms (60 worms per condition) were taken to measure the in vivo fluorescence in a VersaFluor™ Fluorometer System. Fluorescence obtained in treated worms was calculated from fluorescence of worms fed in control conditions (reference sample). Experiments were carried out by duplicate.
From these purified fractions, a total of 11 peptides were selected to be synthesized and evaluated in vivo in the obesity model of C. elegans (Table 9). All peptides were evaluated at 1 μg/mL of final concentration.
We selected 5 peptides obtained from hydrolysis of glycinin with strain 6 (P8a, P6a, P14c, P16f, P14b) The peptides from glycinin were added to a soy fermented product (Savia® from Danone) both alone or mixed at final concentration of 1 μg/mL. Nematodes were fed with these products and then total lipids were quantified by Nile Red staining.

[3] = biological target: T1, PL (pancreatic lipase) (Sus scrofa, UniProt P00591); experiment: PL inhibition assay with 4-methyl umbelliferyl oleate (4MUO), fluorescence; format: biochemical; settings: synthesized peptides
T1 sequence (P00591 1-450): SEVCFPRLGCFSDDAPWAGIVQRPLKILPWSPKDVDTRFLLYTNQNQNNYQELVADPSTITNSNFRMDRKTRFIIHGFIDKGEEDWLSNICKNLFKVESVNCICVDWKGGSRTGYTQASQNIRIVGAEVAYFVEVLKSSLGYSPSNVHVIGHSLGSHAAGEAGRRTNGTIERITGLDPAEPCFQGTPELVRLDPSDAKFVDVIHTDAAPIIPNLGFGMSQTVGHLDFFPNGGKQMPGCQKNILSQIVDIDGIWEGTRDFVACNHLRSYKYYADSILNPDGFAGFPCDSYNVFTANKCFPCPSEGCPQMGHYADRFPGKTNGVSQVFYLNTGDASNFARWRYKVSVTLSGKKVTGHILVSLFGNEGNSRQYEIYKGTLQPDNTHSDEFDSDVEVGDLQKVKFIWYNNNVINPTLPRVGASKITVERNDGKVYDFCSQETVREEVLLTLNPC
Method: Inhibition of PL was determined using 4-methyl umbelliferyl oleate (4MUO) as substrate as described by Sugiyama et al. (Oligomeric procyanidins in apple polyphenol are main active components for inhibition of pancreatic lipase and triglyceride absorption. J Agric Food Chem (2007); 55: 4604-4609) with some modifications. Aliquots of 25 μl of each peptide extract were incubated with 25 μl of PL solution (1 mg/ml) and preincubated for 10 minutes at 26° C. with stirring of 500 rpm. Reaction was initiated by adding 50 μl of 4MUO (0.1 mM) dissolved in Dulbecco's buffer. After incubation at 26° C. for 20 minutes with constant stirring (500 rpm) the reaction was stopped by adding 100 μl of 0.1 M sodium citrate buffer (pH 4.2). The amount of 4-methyl umbelliferone released by the enzyme was determined by fluorescence. Peptide extracts were used as inhibitors in the enzymatic assay but had to be diluted 1/20 or 1/50 because of the interference between the fluorescence and the buffer containing the peptides.

[4] = In vitro enzymatic digestion model of the digestive tract (pepsin, pancreatin, bile), HPLC; format: in vitro ADME
Excerpt: An in vitro enzymatic digestion model of an in vivo digestive tract was developed for mimicking the physiological conditions to check and certify that each selected peptide was differently degraded throughout the gastro-intestinal tract by the digestive process. Pepsin, pancreatin and bile concentrations were optimized using a published experimental design (Granado-Lorencio et al (2007). J. Agri. Food. Chem., 55, 6387-6394).

PLA2 (pancreatic phospholipase A2), sequence (P04054 23-148, species assumed): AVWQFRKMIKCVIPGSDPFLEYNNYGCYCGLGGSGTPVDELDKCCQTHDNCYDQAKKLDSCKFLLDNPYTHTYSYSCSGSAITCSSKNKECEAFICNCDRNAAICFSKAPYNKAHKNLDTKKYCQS

Percentage of PLA2 inhibition ([1]; peptide 0.035 mg/ml): 12.7 ± 6.1% | Percentage of PLA2 inhibition ([1]; peptide 0.35 mg/ml): 12.9 ± 3.9% | Percentage of PLA2 inhibition ([1]; peptide 2 mg/ml): 26.0 ± 6.4% | Percentage of PLA2 inhibition ([1]; peptide 3.5 mg/ml): 20.1 ± 7.7% | IC50 [3]: 68.9 µM | Degradation (%) ([4]; Gastric phase 30 min.): −1.3% | Degradation (%) ([4]; Gastric phase 120 min.): −1.0% | degradation in the in vitro digestion model (in words) ([4]; HPLC, completely degraded = at the beginning of the intestinal phase, resistant ones finally degraded at the end): resistant until the end of the process | metabolised at 0.25 h ([4]; Intestinal phase 15 min., read-out: Degradation (%)): 51.2% | metabolised at 0.5 h ([4]; Intestinal phase 30 min., read-out: Degradation (%)): 71.6% | metabolised at 1 h ([4]; Intestinal phase 60 min., read-out: Degradation (%)): 90.7% | metabolised at 2 h ([4]; Intestinal phase 120 min., read-out: Degradation (%)): 100% | metabolised at 5 min ([4]; Oral phase 5 min., read-out: Degradation (%)): 1.7%
Sequence: SVIKPPTD [Peptide P8a, SVIKPPTD]
% Fluorescence Reduction ([2]; nematodes fed NG with peptides alone or in Savia soy fermented product, alone or mixed, 1 μg/mL final concentration, Nile Red): 41.7 ± 4.02% | % Fluorescence Reduction C. elegans ([2]; synthesized peptides at 1 μg/mL of final concentration): 44.67 ± 10.5%
